Test system: Qa-1
Test: Qa-1/peptide binding assay (flow cytometry-based competition with biotinylated Qdm)
Parameters: species or system mouse
Details: Qa-1 transfected HeLa cells, 0.5 μM biotinylated Qdm + 5 or 10 μM unlabeled competing peptide, 1.5 hours at 4°C, Fig 2A

Substance: OT-I: negative control OT-I peptide
- Competition with bio-Qdm for binding to Qa-1 (decrease in streptavidin-APC staining): unable to do so
